In patent US20050191710A1, “Method for labeling a membrane-localized protein” (priority 2004, published 2005):

Legend:
[1] = test system: CFTR; test: cAMP-stimulated iodide efflux from stably transfected cells; assay type: cell-based, baby hamster kidney (BHK) cells; conditions: for peak iodide efflux: compared to wild-type CFTR
From the text: Since CFTR functions as a chloride channel, responsiveness of the tagged channels to PKA was examined by comparing cAMP-stimulated iodide efflux from cells stably transfected with 1) wild-type CFTR, 2) CFTR with a polyhistidine tag, 3) wild-type CFTR bearing both polyhistidine and biotinylation tags or 4) a ΔF508 CFTR construct that was identical to 3) except for deletion of phenylalanine 508. […] Therefore, similar to epitope-tagging of the fourth extracellular loop (Benharouga, et al. (2003) J. Biol. Chem. 278:22079-22089; Schultz, et al. (1997) Am. J. Physiol. Cell Physiol. 273:C2080-C2089), iodide efflux responses to PKA were preserved after insertion of a biotinylation target sequence.
Iodide effluxes were measured using standard methods (Cormet-Boyaka, et al. (2002) Proc. Natl. Acad. Sci. USA 99:12477-12482; Cormet-Boyaka, et al. (2002) Proc. Natl. Acad. Sci. USA 99:12477-12482). Briefly, cells were incubated with iodide loading buffer (136 mM NaI, 3 mM KNO3, 2 mM Ca(NO3)2, 11 mM glucose and 20 mM HEPES, pH 7.4) for 1 hour at room temperature. Extracellular NaI was removed by rinsing with iodide-free efflux buffer (same as loading buffer except NaNO3 replaced NaI). Samples were collected by removing the efflux buffer at 1 minute intervals and replacing it with fresh solution. The first three samples established the baseline efflux rate, then cpt-cAMP was added and samples were collected at 1 minute intervals in the continuous presence of cpt-cAMP for 15 minutes. Iodide was measured using an iodide sensitive electrode (Orion Research, Inc., Boston, Mass., USA) and converted to nmoles released/minutes.

[2] = biological target: T1, BirA (Escherichia coli, UniProt P06709); conditions: estimated from initial rate of biotinyl-5′-AMP synthesis; read-out: KM for ATP; cited from earlier work
[3] = biological target: T1, BirA; conditions: read-out: equilibrium dissociation constant; cited from earlier work

T1 sequence (P06709 whole entry): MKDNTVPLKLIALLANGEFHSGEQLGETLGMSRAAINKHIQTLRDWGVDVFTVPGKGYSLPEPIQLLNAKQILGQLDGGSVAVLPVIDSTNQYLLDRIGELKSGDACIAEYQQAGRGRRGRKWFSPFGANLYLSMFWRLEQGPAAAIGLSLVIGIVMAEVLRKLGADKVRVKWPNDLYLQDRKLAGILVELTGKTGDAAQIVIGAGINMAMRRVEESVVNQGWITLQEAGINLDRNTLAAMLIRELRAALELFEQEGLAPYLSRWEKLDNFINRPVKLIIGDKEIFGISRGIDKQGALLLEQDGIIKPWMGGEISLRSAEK

CFTR with a polyhistidine tag: CFTR with glycine and ten histidines added to the C-terminus [reference compound]
peak iodide efflux ([1]; cAMP-stimulated): not diminished

ΔF508CFTR-biotintag: ΔF508 CFTR construct with biotinylation tag, deletion of phenylalanine 508 (disease mutation)
cAMP-stimulated iodide efflux [1]: not detected

Nc1ncnc2c1ncn2[C@@H]1O[C@H](COP(=O)(O)OP(=O)(O)OP(=O)(O)O)[C@@H](O)[C@H]1O [ATP]
Km [2]: 3000 µM

O=C(O)CCCC[C@@H]1SC[C@@H]2NC(=O)N[C@@H]21 [biotin]
Kd [3]: 10 to 100 nM

wild-type CFTR bearing both polyhistidine and biotinylation tags: CFTR-biotintag with ten histidines at the C-terminus for purification on nickel-NTA beads
delay of iodide efflux compared to wild-type CFTR ([1]; cAMP-stimulated): ~1 min | peak iodide efflux ([1]; cAMP-stimulated): not diminished
